Measurements reported in EP4321514B1, “COMPOUND HAVING ALK INHIBITORY ACTIVITY, PREPARATION METHOD THEREFOR AND USE THEREOF” (CGeneTech (Suzhou, China) Co., Ltd., priority 2021, dated 2022).
pIC50: −log10 of the molar value.

Legend:
[1] = biological target: T1, ALK kinase (Homo sapiens, UniProt Q9UM73); assay: ALK kinase inhibition test; type: biochemical; conditions: 0.4 ng/well ALK kinase, 5 µM ATP, fluorescence 665 nm/615 nm
T1 construct: purchased Thermo Scientific
Procedure: The inhibitory activity of the compound in the present application on ALK kinase will be determined through in vitro tests, which can be represented by IC50 value.
4 µL of the diluted solution of the test compound and 2 µL of 0.4 ng/well ALK kinase solution (Thermo Scientific) were added into reaction wells in turn, incubated for 10 min at room temperature, then 4 µL of 0.7 µM biotin-labeled tyrosine kinase substrate and 5 µM ATP solution were added to start the kinase reaction.
Software Graphpad Prism 6 was used to fit an IC50 curve and calculate an IC50 value.

[2] = tested on: human anaplastic large cell lymphoma cell Karpas 299; assay: ALK gene fusion cell proliferation inhibition test (CCK-8); type: cell-based; conditions: 72 hours incubation, CCK-8, absorbance at 450 nm
Procedure: The 96-well culture plate was placed in a 5 % carbon dioxide incubator at 37 °C to be cultured overnight. A test compound was formulated into a 10 mM storage solution with DMSO, and the 10mM storage solution was gradually diluted with DMSO at a dilution ration of 1:4 to obtain 9 concentration gradients of solutions of the test compound. The test compound was diluted with culture medium to 5 times the set final concentration of corresponding action, and the diluted solution of the test compound was added at 25 µL/well to corresponding cell wells according to the set compound layout, and then incubated in a 5 % carbon dioxide incubator at 37 °C for 72 hours. After 72 hours, 10 µL of CCK-8 was added into a cell culture medium, and the culture solution was sucked from adherent cells, then a freshly prepared CCK-8 detection solution was added and the cells were incubated in a 37 °C incubator for 1-4 hours. The absorbance at 450 nm wavelength on the SpectraMax i3X Microplate Reader was measured after gently shaking, with the absorbance at 650 nm as a reference.

T1 sequence (Q9UM73 19-1620): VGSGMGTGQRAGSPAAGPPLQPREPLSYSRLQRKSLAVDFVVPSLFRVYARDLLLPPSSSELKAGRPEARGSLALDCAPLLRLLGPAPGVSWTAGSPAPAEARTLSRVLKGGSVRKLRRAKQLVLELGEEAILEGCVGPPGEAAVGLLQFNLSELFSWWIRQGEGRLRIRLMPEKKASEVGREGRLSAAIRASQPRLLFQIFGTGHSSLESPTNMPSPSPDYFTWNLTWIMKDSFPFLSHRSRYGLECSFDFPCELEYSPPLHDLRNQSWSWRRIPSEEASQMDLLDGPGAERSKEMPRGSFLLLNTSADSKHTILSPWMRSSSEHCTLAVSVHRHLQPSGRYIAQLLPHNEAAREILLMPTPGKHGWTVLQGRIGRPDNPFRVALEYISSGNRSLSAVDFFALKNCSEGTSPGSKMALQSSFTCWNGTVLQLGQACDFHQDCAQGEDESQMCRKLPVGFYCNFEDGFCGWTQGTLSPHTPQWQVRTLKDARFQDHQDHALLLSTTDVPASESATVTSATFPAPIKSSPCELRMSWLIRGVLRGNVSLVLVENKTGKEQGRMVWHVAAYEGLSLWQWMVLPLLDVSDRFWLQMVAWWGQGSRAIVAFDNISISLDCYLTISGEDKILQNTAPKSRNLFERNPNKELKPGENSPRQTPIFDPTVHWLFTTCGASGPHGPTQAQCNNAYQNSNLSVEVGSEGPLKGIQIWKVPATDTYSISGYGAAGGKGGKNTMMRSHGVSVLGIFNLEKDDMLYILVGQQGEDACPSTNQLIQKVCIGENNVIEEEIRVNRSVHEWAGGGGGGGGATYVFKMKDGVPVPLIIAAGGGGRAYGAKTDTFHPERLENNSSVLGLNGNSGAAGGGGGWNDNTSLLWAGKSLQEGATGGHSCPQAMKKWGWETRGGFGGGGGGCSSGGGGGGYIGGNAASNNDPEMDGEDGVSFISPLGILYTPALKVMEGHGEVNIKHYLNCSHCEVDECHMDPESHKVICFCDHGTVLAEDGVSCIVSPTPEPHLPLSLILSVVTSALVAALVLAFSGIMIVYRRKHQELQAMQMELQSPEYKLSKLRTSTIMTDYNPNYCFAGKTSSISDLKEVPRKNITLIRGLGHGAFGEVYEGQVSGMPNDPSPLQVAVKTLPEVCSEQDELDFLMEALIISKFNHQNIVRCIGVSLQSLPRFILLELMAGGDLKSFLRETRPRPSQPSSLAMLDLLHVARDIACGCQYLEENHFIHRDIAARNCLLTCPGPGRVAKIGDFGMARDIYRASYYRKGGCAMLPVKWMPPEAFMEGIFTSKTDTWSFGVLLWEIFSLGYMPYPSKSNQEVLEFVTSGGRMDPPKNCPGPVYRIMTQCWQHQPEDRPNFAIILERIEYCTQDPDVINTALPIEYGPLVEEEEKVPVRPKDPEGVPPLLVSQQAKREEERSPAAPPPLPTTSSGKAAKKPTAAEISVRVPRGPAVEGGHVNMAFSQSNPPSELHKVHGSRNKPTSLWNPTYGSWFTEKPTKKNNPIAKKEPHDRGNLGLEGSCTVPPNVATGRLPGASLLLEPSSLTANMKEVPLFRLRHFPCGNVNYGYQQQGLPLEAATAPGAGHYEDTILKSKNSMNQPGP

pIC50 [1]: 7.68
pIC50 [2]: 6.97
SMILES: C#Cc1ccc2c3c([nH]c2c1)C(C)(C)c1cc(N2CCC(N(C)C)CC2)c(CC)cc1C3=O [Example E6, 8-(4-(dimethylamino)piperidin-1-yl)-9-ethyl-3-ethynyl-6,6-dimethyl-5,6-dihydro-11H-benzo[b]car bazol-11-one]
